Experiments:
[1] = test system: A53T-αSyn PD patient iPSC-derived DA neurons; assay: Immunofluorescence / fractionation western blot in A53T-αSyn iPSC-derived (DA) neurons; assay type: cell-based, human; conditions: 1 µM, five days
Source text: PD iPS cells lines (αSyn A53T, NN0004337, donor) and its isogenic corrected control line (NN0004344) were obtained from RUCDR Infinite Biologics. The iPS cells were differentiated into dopaminergic neuron-enriched neuronal culture with the protocol described previously. Briefly, iPS cell colonies were disassociated with accutase (Invitrogen), plated onto 6-well plates pre-coated with 2.5% Matrigel (BD Biosciences) and allowed to reach 80% confluence in mTeSR medium (Stem Cell Technology). For the first 10 days, cells were treated with SB431542 (10 µM; Tocris Bioscience) and Noggin (100 ng/ml) in Neural Media (NM) with FGF2 ([…]) and EGF ([…]). NM media contained: Neurobasal and DMEM/F12 (1:1), B-27 Supplement Minus Vitamin A (50×, Invitrogen), N2 Supplement (100X, Invitrogen), GlutaMAX (Invitrogen, 100×), 100 units/ml penicillin and 100 µg/ml streptomycin (Fisher); for the next 4 days, cells were treated with human recombinant Sonic hedgehog (SHH, 200 ng/ml) in neuronal differentiation medium. Neuronal differentiation medium contained Neurobasal and DMEM/F12 (1:3), B27, N2, GlutaMax and PS. In the following 3 days, cells were switched to BDNF (20 ng/ml), ascorbic acid (200 µM, Sigma-Alderich), SHH (200 ng/ml), and FGF8b (100 ng/ml) in neuronal differentiation medium. Thereafter, cells were treated with BDNF, ascorbic acid, GDNF (10 ng/ml), TGF-b (1 ng/ml), and cAMP ([…], Sigma-Aldrich). All growth factors were purchased from Pepro Tech (Rocky Hill, NJ, USA). After 20 days of induction, neurons were treated daily with TAT or CS2 peptides at 1µM and were fixed for immunostaining at 26 days of induction. The imaging was observed by confocal microscope (Fluoview FV3000, Olympus).
Cells were grown on coverslips, fixed with 4% paraformaldehyde for 20 min at room temperature, permeabilized with 0.1% Triton X-100 in PBS, and blocked with 2% normal goat serum. The cells were incubated with the indicated primary antibodies overnight at 4℃. After washing with PBS, the cells were incubated with Alexa Fluor 488/568 or 405/568 secondary antibody (1:500; Thermo Fisher Scientific) for 2 h at room temperature. The nuclei were counterstained with DAPI (1:10000; Sigma-Aldrich). Images of the staining were acquired using a Fluoview FV3000 confocal microscope (Olympus).
Fig. 6 CS2 treatment is protective in DA neurons derived from PD patient iPSCs. (A) Representative images of MitoTracker staining and ClpP-αSyn PLA in A53T αSyn or isogenic control (ISO) iPSCs-derived neurons (scale bar = 30 μm). (B) Representative images of ClpP-αSyn PLA in A53T αSyn or ISO iPSCs-derived neurons, which were treated with TAT or CS2 peptide (scale bar = 30 μm). […] (C) Representative blots of co-immunoprecipitation assay assessing ClpP-αSyn in A53T αSyn or ISO iPSCs-derived neurons, which were treated with TAT or CS2 peptide. […] (D) Representative images of ClpP staining in […] positive (TH^+) iPSCs-derived DA neurons treated with TAT or CS2 peptide (scale bar = 30 μm). […] (E) Representative images of pS129-αSyn (pS129) staining in TH^+ iPSCs-derived DA neurons treated with TAT or CS2 peptide (scale bar = 30 μm). […] (F) Representative images of PSD95, Synapsin1 (SYN1) and MAP2 staining in iPSCs-derived neurons treated with TAT or CS2 peptide (scale bar = 30 μm).
(C) Detergent soluble and insoluble fractions were extracted from iPSC-derived neurons and subjected for western blot analyses. Shown are the representative blots of 3 independent experiments.

ClpP–αSyn interaction = assay: Co-immunoprecipitation of ClpP with αSyn constructs in HEK293T cell lysates; assay type: cell-based; conditions: HEK293T lysates
Procedure: Myc-tagged WT- and A53T- αSyn, Myc-tagged ClpP, and Flag-tagged WT- and S153A- ClpP plasmids were self-constructed as previously described (Ref). To construct truncated-αSyn plasmids, pcDNA3.1(-) was digested with BsteII and XbaI, and ΔN-, ΔC- and ΔNAC-αSyn was PCR-amplified using self-designed primers and inserted into the plasmid backbone. Cells were transfected with TransIT-2020 (Mirus Bio, LLC) following the manufacturer’s protocol.
Cells or tissues were lysed in total lysis buffer (50mM Tris-HCl, pH 7.5, 150mM NaCl, 1% Triton X-100, and protease inhibitor). Total protein lysates (800 µg) were incubated with the indicated antibodies overnight at 4 °C followed by the addition of protein A/G beads (sc-2003, Santa Cruz) for 2 h at 4 °C. Various recombinant αSyn and Clpp (500 ng) were incubated in in vitro interaction buffer (20mM Tris-HCl pH 7.5, 100mM KCl, 2mM MgCl2 and 0.1% Triton-X100) for 30 min at room temperature, and then incubated with indicated antibodies overnight at 4 °C followed by the addition of protein A/G beads for 2 h at 4 °C. The beads with immuno-precipitates were pulled down at 4000 g and washed four times with total lysis buffer/in vitro interaction buffer in the presence of 0.1% Triton X-100 and were analyzed by western blot analysis.
Shown are representative blots of 3 independent experiments. Quantification of the ratio of αSyn over ClpP (pull-down) (n = 4, two-tailed Student’s t test, data are mean ± SEM).

[2] = test system: A53T-αSyn iPSC-derived neurons; assay: Mitochondrial function (Mito-SOX, TMRM, ATP) in A53T-αSyn iPSC-derived neurons; assay type: cell-based, human
Source text: PD iPS cells lines (αSyn A53T, NN0004337, donor) and its isogenic corrected control line (NN0004344) were obtained from RUCDR Infinite Biologics. The iPS cells were differentiated into dopaminergic neuron-enriched neuronal culture with the protocol described previously. Briefly, iPS cell colonies were disassociated with accutase (Invitrogen), plated onto 6-well plates pre-coated with 2.5% Matrigel (BD Biosciences) and allowed to reach 80% confluence in mTeSR medium (Stem Cell Technology). For the first 10 days, cells were treated with SB431542 (10 µM; Tocris Bioscience) and Noggin (100 ng/ml) in Neural Media (NM) with FGF2 ([…]) and EGF ([…]). NM media contained: Neurobasal and DMEM/F12 (1:1), B-27 Supplement Minus Vitamin A (50×, Invitrogen), N2 Supplement (100X, Invitrogen), GlutaMAX (Invitrogen, 100×), 100 units/ml penicillin and 100 µg/ml streptomycin (Fisher); for the next 4 days, cells were treated with human recombinant Sonic hedgehog (SHH, 200 ng/ml) in neuronal differentiation medium. […]
Cells cultured on coverslips or 24-well plates were washed with DPBS and then incubated with 5 µM Mito-SOX™ Red (Invitrogen, M36008), a mitochondrial superoxide indicator, for 10 min at 37 °C. For cells cultured on coverslips, the images were visualized by microscope, and quantification of images was then carried out using NIH ImageJ software. At least 100 cells per group were counted in the analysis.
Cells cultured on coverslips or 24-well plates were washed with DPBS and then incubated with 0.25 µM Tetramethylrhodamine, methyl ester (TMRM) (Invitrogen, T668), for 20 min at 37 °C. For cells cultured on coverslips, the images were visualized by microscope, and quantification of images was then carried out using NIH Fiji ImageJ software. At least 100 cells per group were counted in the analysis.
Cells were seeded in 24-well plates, followed by the indicated treatment. The ATP level in each well was determined using the ATP assay kit according to the manufacturer’s procedures (Cayman Chemical, 700410).

[3] = A53T-αSyn iPSC neurons, n = 6–7

CC(C)[C@H](NC(=O)CNC(=O)CNC(=O)CCCCCNC(=O)[C@H](CCCNC(=N)N)NC(=O)[C@H](CCCNC(=N)N)NC(=O)[C@H](CCCNC(=N)N)NC(=O)[C@H](CCC(N)=O)NC(=O)[C@H](CCCNC(=N)N)NC(=O)[C@H](CCCNC(=N)N)NC(=O)[C@H](CCCCN)NC(=O)[C@H](CCCCN)NC(=O)[C@H](CCCNC(=N)N)NC(=O)CNC(=O)[C@@H](N)Cc1ccc(O)cc1)C(=O)N[C@H](C(=O)N[C@H](C(=O)N[C@@H](C)C(=O)O)[C@@H](C)O)C(C)C [CS2, TAT-C6-GGVVTA]
insoluble αSyn accumulation, iPSC neurons ([1]; 3 independent experiments): reduced the expression of pS129-αSyn and the accumulation of insoluble αSyn
pS129-αSyn expression, iPSC DA neurons ([1]; n = 5–7): reduced the expression of pS129-αSyn
ClpP protein level in TH+ DA neurons ([1]; n = 6): significantly restored ClpP protein levels
PSD95 density [1, 3]: restored the density of both PSD95 and Synapsin1
Synapsin1 density [1, 3]: restored the density of both PSD95 and Synapsin1
ClpP binding to ΔC-αSyn (ClpP–αSyn interaction; Flag-ClpP + Myc-ΔC-αSyn): abolished
ClpP binding to ΔN-αSyn (ClpP–αSyn interaction; Flag-ClpP + Myc-ΔN-αSyn): abolished
ClpP binding to WT-αSyn (ClpP–αSyn interaction; WT αSyn, CS2: 24-hour treatment): abolished
mitochondrial ROS, iPSC neurons ([2]; Mito-SOX, n = 3): reduced mitochondrial ROS
mitochondrial membrane potential, iPSC neurons ([2]; TMRM, n = 3): rescued mitochondrial membrane potential
ATP content, iPSC neurons ([2]; n = 6): rescued mitochondrial membrane potential and ATP content

Source: paper PMC12751141, “Disrupting α-Synuclein–ClpP interaction restores mitochondrial function and attenuates neuropathology in Parkinson’s disease models” (Molecular Neurodegeneration, 2025)
